Here are results for five molecules from PMC9102038 (International Journal of Molecular Sciences, 2022).

Like-named read-outs stand apart in the source and are kept apart here.

Series [1] addresses T1, PPARδ-LBD (Homo sapiens, UniProt Q03181).
T1 sequence (Q03181 170-441): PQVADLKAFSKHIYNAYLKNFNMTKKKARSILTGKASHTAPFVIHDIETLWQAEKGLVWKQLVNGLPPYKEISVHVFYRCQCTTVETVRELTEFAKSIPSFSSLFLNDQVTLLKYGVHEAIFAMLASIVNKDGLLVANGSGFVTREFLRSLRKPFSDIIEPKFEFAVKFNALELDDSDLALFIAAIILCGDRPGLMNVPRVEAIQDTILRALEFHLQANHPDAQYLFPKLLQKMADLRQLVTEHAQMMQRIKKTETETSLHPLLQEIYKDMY
Kind of series: TR-FRET SRC1 coactivator peptide recruitment assay, PPARδ-LBD. Background: Time-resolved FRET reads energy transfer from a long-lived donor to a nearby acceptor.

The target in series [2] is T2, GAL4–human PPARδ-LBD chimera (Homo sapiens, UniProt Q03181).
T2 sequence (Q03181 211-439 limits assumed): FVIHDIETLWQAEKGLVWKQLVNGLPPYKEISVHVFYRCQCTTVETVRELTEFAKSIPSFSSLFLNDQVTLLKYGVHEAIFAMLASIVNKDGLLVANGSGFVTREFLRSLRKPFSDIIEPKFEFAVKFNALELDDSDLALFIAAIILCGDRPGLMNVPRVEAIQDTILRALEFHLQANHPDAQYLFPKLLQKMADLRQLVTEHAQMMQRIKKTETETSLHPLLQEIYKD
The experiment in a line: GAL4–hPPARδ-LBD dual luciferase transactivation assay in COS-7 cells. The conditions noted are these: for efficacy, PPARδ-LBD-mediated transactivation: maximal effect of GW501516 (0.02 µM) as 100%.

For series [3], the target named is T3, human PPARγ-LBD (Homo sapiens, UniProt P37231).
T3 sequence (P37231 203-477 isoform P37231-2): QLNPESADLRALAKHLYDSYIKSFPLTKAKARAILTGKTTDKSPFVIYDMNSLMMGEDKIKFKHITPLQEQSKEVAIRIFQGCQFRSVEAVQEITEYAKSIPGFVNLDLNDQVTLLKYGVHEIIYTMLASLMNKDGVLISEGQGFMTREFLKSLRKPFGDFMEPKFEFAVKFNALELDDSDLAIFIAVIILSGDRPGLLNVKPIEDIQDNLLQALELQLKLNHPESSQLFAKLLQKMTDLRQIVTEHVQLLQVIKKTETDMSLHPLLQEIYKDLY
Kind of series: TR-FRET SRC1 coactivator peptide recruitment assay, PPARγ-LBD.

For series [4], the target named is T3, human PPARγ-LBD. The experiment in a line: TR-FRET PGC1α coactivator peptide recruitment assay, PPARγ-LBD.
Series [5] addresses T4, GAL4–human PPARγ-LBD chimera (Homo sapiens, UniProt P37231).
T4 sequence (P37231 238-503 limits assumed): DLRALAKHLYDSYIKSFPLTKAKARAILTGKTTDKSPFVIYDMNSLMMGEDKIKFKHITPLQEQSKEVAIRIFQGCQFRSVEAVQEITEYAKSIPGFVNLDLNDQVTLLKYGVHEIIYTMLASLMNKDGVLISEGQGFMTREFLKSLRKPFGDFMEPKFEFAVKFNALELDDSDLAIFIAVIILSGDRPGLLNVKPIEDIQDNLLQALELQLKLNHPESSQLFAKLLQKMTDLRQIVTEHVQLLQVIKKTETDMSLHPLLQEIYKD
The experiment in a line: GAL4–hPPARγ-LBD dual luciferase transactivation assay in COS-7 cells. The conditions noted are these: for efficacy, PPARγ-LBD-mediated transactivation: maximal effect of GW1929 (1 µM) as 100%.

For series [6] the following is noted: single dose (200 mg) of bezafibrate; read-out: maximal plasma concentration (Cmax); cited from earlier work.
The subject of series [7] is PPARγ. Details: method as in PMID 14982965. The conditions noted are these: read-out: EC50, PPARγ transactivation, previous experiments; cited from earlier work.
Series [8] has as its system PPARδ. Further details: method as in PMID 14982965. The conditions noted are these: read-out: EC50, PPARδ transactivation, previous experiments; cited from earlier work.
The subject of series [9] is PPARα. Details: method as in PMID 14982965. To be noted: read-out: EC50, PPARα transactivation, previous experiments; cited from earlier work.
Series [10] addresses T5, GAL4–human PPARα-LBD chimera (Homo sapiens, UniProt Q07869).
T5 sequence (Q07869 239-466 limits assumed): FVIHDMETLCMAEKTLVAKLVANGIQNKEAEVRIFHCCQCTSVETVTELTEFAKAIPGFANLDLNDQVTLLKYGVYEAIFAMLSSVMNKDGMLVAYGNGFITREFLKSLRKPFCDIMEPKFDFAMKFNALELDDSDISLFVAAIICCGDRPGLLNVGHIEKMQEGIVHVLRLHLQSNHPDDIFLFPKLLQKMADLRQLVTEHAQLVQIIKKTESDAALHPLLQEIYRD
The experiment in a line: GAL4–hPPARα-LBD dual luciferase transactivation assay in COS-7 cells.

Series [11] addresses T6, human PPARα-LBD (Homo sapiens, UniProt Q07869).
T6 sequence (Q07869 200-468): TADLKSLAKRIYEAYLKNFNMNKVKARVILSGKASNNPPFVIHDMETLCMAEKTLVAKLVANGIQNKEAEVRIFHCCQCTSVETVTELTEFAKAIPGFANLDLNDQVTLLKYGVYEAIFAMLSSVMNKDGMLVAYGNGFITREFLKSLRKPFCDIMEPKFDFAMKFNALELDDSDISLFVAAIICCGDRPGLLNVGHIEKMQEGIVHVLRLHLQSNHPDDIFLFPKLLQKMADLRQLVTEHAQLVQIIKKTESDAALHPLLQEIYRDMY
Kind of series: TR-FRET PGC1α coactivator peptide recruitment assay, PPARα-LBD.

The target in series [12] is T6, human PPARα-LBD. Kind of series: TR-FRET SRC1 coactivator peptide recruitment assay, PPARα-LBD.
The target of series [13] is T1, PPARδ-LBD. Kind of series: TR-FRET PGC1α coactivator peptide recruitment assay, PPARδ-LBD.
The target in series [14] is T1, PPARδ-LBD. The experiment in a line: Circular dichroism thermostability assay, PPARδ-LBD. Format: binding. Further details: His-tag (pET28a) (N, cleaved yes); made in house; host or cells: E. coli Rosetta (DE3) pLysS. The conditions noted are these: CD at 222 nm, 10 µM protein, versus 0.1% DMSO. As for the experimental part: Ligand-induced alterations in Tm values at 222 nm were investigated as types of reflection of α-helical stable structures of PPARs because PPAR ligand binding induces stabilization of the LBP [23, 24].
PPARα/δ/γ-LBD proteins (10 µM) were incubated with different concentrations of ligands in buffer A. CD spectra were monitored within 200–260 nm at increasing temperatures from 30 °C to 70 °C (2 °C/min) using a J-1500 spectropolarimeter equipped with a PTC-510 thermal controller (JASCO, Tokyo, Japan). […] The thermal stability of PPARs was investigated by continuously monitoring the ellipticity changes at 222 nm during thermal denaturation, and a single-site sigmoidal dose-response curve fitting program (Prism 5) was used to obtain the melting temperature (Tm) that corresponds to the midpoint of the denaturation process. The ligand-induced increases in Tm values are defined as ∆Tm.
Background: Circular dichroism is widely used to follow secondary structure.

[15] abbreviates: COS-7 cells, maximal effect of GW7647 (0.1 µM) as 100%.

For orientation: EC50 means the concentration needed to bring the measured effect to its halfway point. On to `CC(C)(Oc1ccc(CCNC(=O)c2ccc(Cl)cc2)cc1)C(=O)O` [bezafibrate], for which the EC50 is 31.8 µM in [1]; 86.7 µM in series [2]; 76 µM in [3]; 48.9 µM in series [4]; 178 µM in [5]; greater than 100 µM in series [7]. Also, the EC50 in series [8] was 95 µM; in series [9] it was 25 µM. In [2] (COS-7 cells), the “efficacy, PPARδ-LBD-mediated transactivation” value is listed as 15.2%. Also, the “efficacy, PPARγ-LBD-mediated transactivation” value in [5] (COS-7 cells) was found to be 77.1%. Moreover, the Cmax in series [6] is 20.4 µM. Besides, the “efficacy, PPARα-LBD-mediated transactivation” value in series [10] turned out to be 93.6%.

Regarding `CC(C)(Oc1ccc(C(=O)c2ccc(Cl)cc2)cc1)C(=O)O` [fenofibric acid], the EC50 in [1] is greater than 500 µM; in series [2] it was greater than 500 µM; in series [11], 20.9 µM; in [12], 9.87 µM; in series [13] it was greater than 100 µM; in [10], 9.47 µM. Moreover, the “PPARδ-LBD-mediated transactivation (in words)” value in series [2] (COS-7 cells) is listed as “did not induce transactivation”. Further, the “efficacy, PPARγ-LBD-mediated transactivation” value in series [5] (COS-7 cells) is recorded as 87.7%. The “PGC1α recruitment to PPARδ-LBD (in words)” value in [13] (TR-FRET) was “did not recruit PGC1α”. Moreover, in series [14], the “effect on Tm of PPARδ-LBD (thermostability, in words)” value is listed as “increased thermostability”. Further, in series [10] (setting [15]), the “efficacy, PPARα-LBD-mediated transactivation” value was determined as 104%.

With GW1929, the “maximal effect, SRC1 recruitment to PPARγ-LBD (× of the basal activity)” value in [3] (at 1 µM) is listed as 9.26 ×. Further, the “maximal effect, PGC1α recruitment to PPARγ-LBD (× of the basal activity)” value in series [4] (at 1 µM) is recorded as 5.80 ×. The “maximal effect, PPARγ-LBD-mediated transactivation (× of the basal activity)” value in series [5] (COS-7 cells, at 1 µM) is 2.26 ×.

Consider `CC[C@@H](Oc1cccc(CN(CCCOc2ccc(OC)cc2)c2nc3ccccc3o2)c1)C(=O)O` [pemafibrate], for which the EC50 in series [1] was 4.82 µM; in [2], 1.39 µM; in [3], greater than 10 µM; in series [4], 9.7 µM; in series [5] it was greater than 5 µM; in [13] it was 6.11 µM. For the same molecule, the “efficacy, PPARδ-LBD-mediated transactivation” value in series [2] (COS-7 cells) is 11.3%. Also, the “efficacy, PPARγ-LBD-mediated transactivation” value in series [5] (COS-7 cells) was determined as 119%. Also, in series [10] (setting [15]), the “efficacy, PPARα-LBD-mediated transactivation” value is recorded as 107%.

With `CC(C)(Sc1ccc(CCN(CCCCC2CCCCC2)C(=O)NC2CCCCC2)cc1)C(=O)O` [GW7647], the “maximal effect, PGC1α recruitment to PPARα-LBD (× of the basal activity)” value in series [11] (at 1 µM) stood at 8.87 ×. Moreover, in series [12] (at 1 µM), the “maximal effect, SRC1 recruitment to PPARα-LBD (× of the basal activity)” value amounted to 6.12 ×. The “maximal effect, PPARα-LBD-mediated transactivation (× of the basal activity)” value in series [10] (COS-7 cells, at 0.1 µM) was 5.73 ×.
